This is an account of results in ChEMBL document CHEMBL5131560, “Discovery of Heteroaryl Urea Isosteres for Formyl Peptide Receptor 2 Agonists” (ACS Med Chem Lett, 2022).

A word on the EC50: it is the concentration needed to bring the measured effect to its halfway point. What is called fraction unbound is the share of the substance not bound to proteins or other matrix. A word on the AUC(0-inf): it is the area under the concentration-time curve extrapolated to infinity. Lower therefore signals less exposure.

In data set [1] the target is T1, N-formyl peptide receptor 2 (Homo sapiens, UniProt P25090).
T1 sequence (P25090 whole entry): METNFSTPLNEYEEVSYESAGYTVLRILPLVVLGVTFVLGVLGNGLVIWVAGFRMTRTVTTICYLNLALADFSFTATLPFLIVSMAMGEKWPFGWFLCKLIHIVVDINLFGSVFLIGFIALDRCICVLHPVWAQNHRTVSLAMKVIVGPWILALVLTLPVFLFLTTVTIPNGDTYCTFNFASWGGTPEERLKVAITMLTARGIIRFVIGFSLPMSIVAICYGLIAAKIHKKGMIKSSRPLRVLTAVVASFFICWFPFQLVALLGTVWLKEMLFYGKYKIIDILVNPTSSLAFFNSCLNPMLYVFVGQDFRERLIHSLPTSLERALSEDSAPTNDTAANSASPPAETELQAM
Put plainly: Agonist activity at human FPR2 overexpressing CHO cells assessed as reduction in intracellular cAMP level incubated for 30 mins by HTRF assay. Format: functional, cell-based.

Data set [2] is described as follows: Permeability of the compound at pH 5.5 by PAMPA assay. Format: ADME. Conditions: read-out: permeability. A general note: In PAMPA a lipid-coated filter parts donor from acceptor wells.
A short description of data set [3]: Protein binding in human assessed as free fraction. The data set is classed as ADME.
A short description of data set [4]: AUC (0 to infinity) in C57BL6 mouse at 3 mg/kg, po and measured upto 24 hrs by LC-MS/MS analysis. Format: ADME, organism-based. Set-up: dose 3 mg/kg, time < 24 hrs, route po. Conditions: in vivo.
The test system of data set [5] is Peritoneal macrophage. As to the kind of experiment: Induction of phagocytosis in mouse peritoneal macrophages assessed as increase in FITC signal preincubated with compound for 15 mins followed by zymosan addition and measured after 1 hr by Trypan Blue based FITC analysis.

As to `COc1cc(F)c([C@@H]2CNC(=O)[C@H]2c2nc3cc(Cl)ccc3[nH]2)c(F)c1`, the EC50 in data set [1] is 110 nM. On to `COc1cc(F)c([C@@H]2CNC(=O)[C@H]2Nc2cc(-c3ccc(Cl)cc3)[nH]n2)c(F)c1`, for which the EC50 in data set [1] was greater than 10000 nM. For `COc1cc(F)c([C@@H]2CNC(=O)[C@H]2Nc2nnc(-c3ccccc3Cl)o2)c(F)c1`, the concentration giving a half-maximal response (EC50) in data set [1] is greater than 10000 nM. Still for that read-out and setting: as for `COc1ccc([C@@H]2CNC(=O)[C@H]2Nc2nnc(-c3ccc(Cl)cc3)o2)c(F)c1`, the figure is 40 nM. On the same count and under the same terms, as for `COc1cc(F)c([C@@H]2CNC(=O)[C@H]2c2nc3cc(Cl)cnc3[nH]2)c(F)c1`, the figure is 40 nM. Turning to `COc1cc(F)c([C@@H]2CNC(=O)[C@H]2Nc2nc3ccccc3[nH]2)c(F)c1`, the EC50 in data set [1] amounted to 1300 nM. For `COc1cc(F)c([C@@H]2CNC(=O)[C@H]2Nc2nnc(-c3ccccc3)o2)c(F)c1`, the EC50 in data set [1] was 250 nM. For the compound `COc1cc(F)c([C@@H]2CNC(=O)[C@H]2Nc2nnc(-c3ccc(Cl)cc3)o2)c(F)c1`, the Papp in data set [2] was determined as 97 ×10⁻⁶ cm/s. In data set [3], the free fraction (fraction unbound) came to 0.015. The AUC(0-inf) in data set [4] is 8.4 µM·h. In addition, the EC50 in data set [1] came out at 32 nM. As to `COc1cc(F)c([C@@H]2CNC(=O)[C@H]2Nc2cc(-c3ccc(Cl)cc3)on2)c(F)c1`, in data set [2], the Papp worked out at 110 ×10⁻⁶ cm/s. Also, the fraction unbound in data set [3] was determined as 0.005. This compound showed an AUC(0-inf) in data set [4] of 15 µM·h. Turning to `COc1cc(F)c([C@@H]2CNC(=O)[C@H]2Nc2cc(-c3ccc(Cl)cc3)n(C)n2)c(F)c1`, in data set [1], the concentration giving a half-maximal response (EC50) was greater than 10000 nM. Still for that read-out and setting: as for `COc1cc(F)c([C@@H]2CNC(=O)[C@H]2Nc2noc(-c3ccc(Cl)cc3)n2)c(F)c1`, the figure is 2500 nM; as for `COc1cc(F)c([C@@H]2CNC(=O)[C@H]2Nc2nc(-c3ccc(Cl)cc3)no2)c(F)c1`, 3500 nM; as for `COc1cc(F)c([C@@H]2CNC(=O)[C@H]2c2nc3c(Cl)cccc3[nH]2)c(F)c1`, greater than 10000 nM. Still for that read-out and setting: next, `COc1cc(F)c([C@@H]2CNC(=O)[C@H]2Nc2nnc(-c3ccc(OC(F)(F)F)cc3)o2)c(F)c1`: 53 nM; `COc1cc(F)c([C@@H]2CNC(=O)[C@H]2Nc2cc(-c3ccc(Cl)cc3)no2)c(F)c1`: 2200 nM. For the compound `COc1cc(F)c([C@@H]2CNC(=O)[C@H]2Nc2ncc(-c3ccc(Cl)cc3)o2)c(F)c1`, in data set [1], the EC50 was found to be 250 nM. Still for that read-out and setting: next, `COc1cc(F)c([C@@H]2CNC(=O)[C@H]2Nc2nnc(-c3ccc(Cl)cc3)s2)c(F)c1`: 37 nM. On the same count and under the same terms, as for `COc1cc(F)c([C@@H]2CNC(=O)[C@H]2Nc2nnc(-c3ccc(Cl)cc3F)o2)c(F)c1`, the figure is 840 nM.

On to `COc1ccc(-c2nnc(N[C@@H]3C(=O)NC[C@H]3c3c(F)cc(OC)cc3F)o2)cc1`, for which the EC50 in data set [1] is 3700 nM. Regarding `COc1ccc([C@@H]2CNC(=O)[C@H]2Nc2nnc(-c3ccc(Cl)cc3)o2)cc1`, the EC50 in data set [1] came to 160 nM. With `COc1cc(F)c([C@@H]2CNC(=O)[C@H]2c2nc3nc(Cl)ccc3[nH]2)c(F)c1`, the EC50 in data set [1] turned out to be 2300 nM.

In the case of `COc1cc(F)c([C@@H]2CNC(=O)[C@H]2Nc2nnc(-c3cccc(Cl)c3)o2)c(F)c1`, the EC50 in data set [1] is greater than 10000 nM. Still for that read-out and setting: as for `COc1cc(F)c([C@@H]2CNC(=O)[C@H]2c2nc3cc(OC)ccc3[nH]2)c(F)c1`, the figure is greater than 5000 nM; as for `COc1cc(F)c([C@@H]2CNC(=O)[C@H]2c2nc3ccccc3[nH]2)c(F)c1`, 680 nM.

On to `COc1cc(F)c([C@@H]2CNC(=O)[C@H]2NC(=O)Nc2ccccc2)c(F)c1` [BMS-986235], for which the Papp in data set [2] came to 44 ×10⁻⁶ cm/s. For the same compound, the fraction unbound in data set [3] is 0.127. The AUC(0-inf) in data set [4] was 5.6 µM·h. The EC50 in data set [5] was less than 1 nM.
